In PubChem BioAssay (NCI):
Several values for one entry are separate records, joined by “and”; a condition that tells them apart may be missing. Identical values can stand only once.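 Compound exposure: 48 hours, 5 concentrations, 96-well plates. Here, GI50 denotes the concentration required for 50% inhibition of growth. The concentration for full growth arrest is given as TGI.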

How the values were obtained:
Assay in all cases: NCI anticancer screen, dose series, 48 h
NCI-H522 lung = tested on: NCI-H522 lung
MCF7 breast = tested on: MCF7 breast
MDA-MB-231 breast = tested on: MDA-MB-231 breast
IGROV1 ovarian = tested on: IGROV1 ovarian
RPMI-8226 leukemia = tested on: RPMI-8226 leukemia
786-0 renal = tested on: 786-0 renal
MALME-3M melanoma = tested on: MALME-3M melanoma
K-562 leukemia = tested on: K-562 leukemia
RXF 393 renal = tested on: RXF 393 renal
TK-10 renal = tested on: TK-10 renal

| Structure (SMILES) | GI50 (NCI-H522 lung) [µM] | TGI (NCI-H522 lung) | GI50 (MCF7 breast) [µM] | TGI (MCF7 breast) | GI50 (MDA-MB-231 breast) [µM] | TGI (MDA-MB-231 breast) | GI50 (IGROV1 ovarian) [µM] | TGI (IGROV1 ovarian) | GI50 (RPMI-8226 leukemia) [µM] | TGI (RPMI-8226 leukemia) | GI50 (786-0 renal) [µM] | TGI (786-0 renal) | GI50 (MALME-3M melanoma) [µM] | TGI (MALME-3M melanoma) | GI50 (K-562 leukemia) [µM] | TGI (K-562 leukemia) [µM] | GI50 (RXF 393 renal) [µM] | TGI (RXF 393 renal) | GI50 (TK-10 renal) [µM] | TGI (TK-10 renal) |
| --- | --- | --- | --- | --- | --- | --- | --- | --- | --- | --- | --- | --- | --- | --- | --- | --- | --- | --- | --- | --- |
| Cc1cc(C)c(S(=O)(=O)N(CCc2cccc(Br)c2)Cc2ccc(-c3cccc(S(C)(=O)=O)c3)cc2)c(C)c1 | > 100 | > 100 µM | > 100 | > 100 µM | > 100 | > 100 µM | > 100 | > 100 µM | > 100 | > 100 µM | > 100 | > 100 µM | > 100 | > 100 µM | > 100 | > 100 | > 100 | > 100 µM | > 100 | > 100 µM |
| Cc1ncc(C(=O)Nc2ccc(CN3CCN(C)CC3)c(C(F)(F)F)c2)cc1C#Cc1c(N)ncc2ccccc12 | 0.46 | 0.992 µM | 0.378 | 0.913 µM | 0.163 | 0.65 µM | 0.208 | 0.823 µM | 0.396 | 1.26 µM | 0.568 | 1.05 µM | 0.102 | 0.475 µM | 0.00332 | 0.453 | 0.465 | 0.915 µM | 0.623 | 1.12 µM |
| Clc1cc(-c2ccccc2)nc2ccccc12 |  | 34 µM |  | > 100 µM |  | > 100 µM |  | > 100 µM |  | 59 µM |  | > 100 µM |  | > 100 µM |  | > 100 |  | > 100 µM |  | 71.6 µM |
| Cc1nc2c(N3CCCC3)nc(N3CCNCC3)nc2nc1NCc1ccccc1 | 0.869 | 4.56 µM and 4.21 µM | 5.99 | 13.3 µM and 5.92 µM | 5.67 | 12.1 µM and 10.1 µM | 4.49 | 9.84 µM and 15.1 µM | 4.08 | 10.2 µM and 4.84 µM | 1.62 | 10.5 µM and 3.18 µM | 7.17 | 14.5 µM and 4.23 µM | 1.06 | 23.8 | 4.81 | 11 µM and 2.66 µM |  | 11.8 µM and 17.6 µM |
| Clc1ccc(CNc2nccc(-c3cnn4ncccc34)n2)cc1 | 5.85 | 19.3 µM | 5.91 | > 25 µM | 8.5 | > 25 µM | 6.72 | > 23.3 µM | 5.8 | 20 µM | 9.19 | 24.4 µM | 8.94 | 23.3 µM | 10.6 | > 25 | 4.88 | 10.2 µM | 8.71 | > 23.5 µM |
| NC(=O)c1ccccc1NC(=O)c1ccccc1Cl | > 100 | > 100 µM | > 100 | > 100 µM | > 100 | > 100 µM | > 100 | > 100 µM | > 100 | > 100 µM | > 100 | > 100 µM | > 100 | > 100 µM | > 100 | > 100 | > 100 | > 100 µM | > 100 | > 100 µM |
| Cc1ccc2nc(-c3ccc(N)c4ccccc34)[nH]c2c1 | 0.0958 | 1.3 µM | 2.68 | > 100 µM | 0.0899 | 13.3 µM | 0.424 | > 42.4 µM | 0.0298 | 0.934 µM | 0.161 | 20.9 µM | 5.85 | 27.3 µM | 0.763 | 39.7 | 0.265 | 14.7 µM | 0.878 | 59.6 µM |
| O=S(=O)(NC1=NCCN1C(=S)SN1CCn2c1nsc2=S)c1ccccc1Cl | 6.08 | 21.9 µM | 11.5 | > 100 µM | 22.5 | 71.1 µM | 34.8 | > 100 µM | 3.5 | 26.2 µM | 16.7 | 39.1 µM | 12.5 | 67.5 µM | 4.62 | 46.3 | 4.38 | 46.5 µM | 16.3 | 64.2 µM |
| Nc1cc(S(N)(=O)=O)ccc1SSc1ccc(S(N)(=O)=O)cc1N |  | > 100 µM |  | > 100 µM |  | > 100 µM |  | > 100 µM |  | > 100 µM |  | > 100 µM |  | > 100 µM |  | > 100 |  | > 100 µM |  | > 100 µM |
| Nc1ccc(C(OC(=O)c2cc3ccccc3c(Cc3c(O)c(C(=O)OC(c4ccc(N)cc4)(c4ccc(N)cc4)c4ccc(N)cc4)cc4ccccc34)c2O)(c2ccc(N)cc2)c2ccc(N)cc2)cc1 | 0.588 | 12.4 µM | 0.623 | 12.4 µM | 2.8 | 8.76 µM | 9.89 | 85 µM | 0.476 | > 100 µM | 1.76 | 20.2 µM | 1.94 | 20.1 µM | 0.682 | > 100 | 1.83 | 6.7 µM | 5.23 | 21.3 µM |
| O=C(CNc1ccc2c(=S)c3ccccc3[nH]c2c1)Nc1ccccc1-c1ccccc1NC(=O)CNc1ccc2c(=S)c3ccccc3[nH]c2c1 |  | 24.1 µM |  | > 52.7 µM |  | > 51.7 µM |  | 61 µM |  | 49.9 µM |  | 32.9 µM |  | 31.7 µM |  | > 53.6 |  | 56.6 µM |  | 43.9 µM |
| c1ccc(B2OCC(C3OB(c4ccccc4)OC4COB(c5ccccc5)OC43)O2)cc1 (centres undefined) |  | > 100 µM |  | > 100 µM |  | > 100 µM |  | > 100 µM |  | > 100 µM |  | > 100 µM |  | > 100 µM |  | > 100 |  | > 100 µM |  | > 100 µM |
| CN(C)CCSCCO |  | > 100 µM |  | > 100 µM |  | > 100 µM |  | > 100 µM |  | > 100 µM |  | > 100 µM |  | > 100 µM |  | > 100 |  | > 100 µM |  | > 100 µM |
